Key:
[1] = test system: Green Peach Aphid (Myzus persicae); assay: Green peach aphid test, leaves of infested pepper plants dipped; assay type: in vivo; details: 120 h, aphid mortality determined after 5 days, read-out: mortality in comparison with untreated controls
From the text: B.2 Green Peach Aphid (Myzus persicae)
(§1) The active compounds were formulated in 50:50 acetone:water and 100 ppm Kinetica™ surfactant.
(§2) Pepper plants in the 2nd leaf-pair stage (variety ‘California Wonder’) are infested with approximately 40 laboratory-reared aphids by placing infested leaf sections on top of the test plants. The leaf sections are removed after 24 hr. The leaves of the intact plants are dipped into gradient solutions of the test compound. Aphid mortality on the treated plants, relative to mortality on check plants, is determined after 5 days.

[2] = test system: Cowpea Aphid (aphis craccivora); assay: Cowpea aphid test, colonized potted cowpea plants sprayed; assay type: in vivo; details: population reduction recorded after 24, 72 and 120 hours, read-out: mortality in comparison with untreated controls
Protocol: B.3 Cowpea Aphid (aphis craccivora)
The active compounds were formulated in 50:50 acetone:water. Potted cowpea plants colonized with 100-150 aphids of various stages were sprayed after the pest population has been recorded. Population reduction was recorded after 24, 72, and 120 hours.

[3] = test system: Cotton Aphid (Aphis gossypii); assay: Cotton aphid test, cotyledons of infested cotton plants dipped; assay type: in vivo; details: 120 h, aphid mortality determined after 5 days, read-out: mortality in comparison with untreated controls
From the text: B.1 Cotton Aphid (Aphis gossypii)
as §1
as §2, with “Cotton” for “Pepper”, “cotyledon” for “2nd leaf-pair”, “‘Delta Pine’)” for “‘California Wonder’)”, “100” for “40”, “cotyledons” for “leaves”

[4] = test system: Vetch Aphid (Megoura viciae); assay: Vetch aphid test, sprayed bean leaf disks in microtiterplates; assay type: in vivo; details: foliar, 144 h, bean leaf disks sprayed with 2.5 μl, 6 days, read-out: mortality in comparison with untreated controls
Protocol: B.4 Vetch Aphid (Megoura viciae)
The active compounds were formulated in 1:3 DMSO:water. Bean leaf disks were placed into microtiterplates filled with 0.8% agar-agar and 2.5 ppm OPUS™. The leaf disks were sprayed with 2.5 μl of the test solution and 5 to 8 adult aphids were placed into the microtiterplates which were then closed and kept at 22-24° C. and 35-45% under fluorescent light for 6 days. Mortality was assessed on the basis of vital, reproduced aphids. Tests were replicated twice.

Row | SMILES | mortality at 300 ppm [1] | mortality at 300 ppm [2] | mortality at 300 ppm [3] | mortality at 2500 ppm [4] | melting point
1 | Clc1cccc(C(Cc2cccnc2)NC2=NCCS2)c1Cl (centres unmarked) [compound 13] | > 80% |  |  |  | 
2 | Cc1cc(CC(NC2=NCCS2)c2cccc(Cl)c2Cl)on1 (centres unmarked) [compound 23] |  | > 80% |  |  | 
3 | Clc1cccc(C(Cc2nccc3ccccc23)NC2=NCCS2)c1Cl (centres unmarked) [compound 8] | > 80% | > 80% | > 80% | > 80% | 
4 | Cc1ccc(CC(NC2=NCCS2)c2cccc(Cl)c2Cl)nc1 (centres unmarked) [compound 3] | > 80% | > 80% | > 80% |  | 
5 | c1ccc(C(Cc2ccco2)NC2=NCCS2)cc1 (centres unmarked) [compound 38] | > 80% |  | > 80% |  | 
6 | Clc1cccc(C(Cc2cc(Cl)c3ccccc3n2)NC2=NCCS2)c1Cl (centres unmarked) [Compound Example 12] |  |  |  |  | 71 to 73 °C
7 | Clc1cccc(C(Cc2cn(Cc3ccccc3)nn2)NC2=NCCS2)c1Cl (centres unmarked) [Compound Example 35] |  |  |  |  | 74 to 89 °C
8 | c1ccc(C(Cc2cccs2)NC2=NCCS2)cc1 (centres unmarked) [compound 39] | > 80% |  | > 80% |  | 
9 | Cc1nc(CC(NC2=NCCS2)c2cccc(Cl)c2Cl)oc1C (centres unmarked) [compound 31] |  | > 80% |  |  | 
10 | Cc1cc(C)nc(CC(NC2=NCCS2)c2cccc(Cl)c2Cl)c1 (centres unmarked) [compound 6] | > 80% | > 80% | > 80% | > 80% | 
11 | Clc1cccc(C(Cc2ccccn2)NC2=NCCS2)c1Cl (centres unmarked) [compound 1] | > 80% | > 80% | > 80% |  | 
12 | CCc1cc(CC(NC2=NCCS2)c2cccc(Cl)c2Cl)on1 (centres unmarked) [compound 24] | > 80% |  | > 80% |  | 
13 | Clc1cccc(C(Cc2ccc3ccccc3n2)NC2=NCCS2)c1Cl (centres unmarked) [compound 9] | > 80% | > 80% | > 80% | > 80% | 
14 | Cc1cccc(CC(NC2=NCCS2)c2cccc(Cl)c2Cl)n1 (centres unmarked) [compound 4] | > 80% | > 80% | > 80% |  | 

— patent US20080312085A1, “Pesticidal Compositions” (priority 2005, published 2008)
